# Patent US20150099012A1, “METHODS FOR ACTIVATING RETROVIRUS IN LATENT INFECTED CELLS, AND COMPOUNDS FOR USE THEREIN” (Erasmus University Medical Center Rotterdam, priority 2012, published 2015)
# Columns and labels:
# latent HIV LTR = experiment: Activation of latent HIV LTR in J-Lat/S-Lat latently infected cell lines (GFP reporter, FACS); type: cell-based, HIV-1; conditions: for de-repression / activation of latent HIV LTR: single agents, J-Lat/S-Lat or 1G5 cells, FIG. 5
# Procedure: A) S-Lat 46, J-Lat P32, J-Lat A2, J-Lat 11.1, S-Lat 24, S-Lat 9 and […], and GFP expression was monitored by FACS analysis to determine activation of the latent LTR. B) J-Lat P32 and (C) S-Lat 30 Jurkats and SupT1 cell lines harbouring latently infected HIV were either untreated or treated with 2, 5 or 10 mM LiCl as indicated. Expression of HIV-LTR driven P24 and GFP, and endogenous Wnt target genes AXIN2, MMP9, TCF1, as well as control GAPDH and NFkB target genes TLR2 and ICAM1 was monitored by qRT-PCR 72 hours after treatment. Expression data are presented as fold induction normalized to Cyclophillin A control.
# (§1) Expression data are presented as fold induction normalized to Cyclophillin A control.
# [1] = tested on: HIV LTR nucleosomes (DHS1, nuc-1); experiment: PCR-based MNase mapping of latent HIV LTR nucleosome structure; type: cell-based
# Excerpt: The high resolution dynamic nucleosomal structure of latently integrated HIV LTR is mapped in presence or absence of Wnt stimulation.
# It is an aspect of this invention that this synergistic effect on LTR nucleosome structure extends to other LTR de-repressors.
# latently infected PBMCs = experiment: Primary PBMC latency model, HIV expression after treatment; type: cell-based; conditions: PBMCs infected with LTR-Tat-IRES-GFP virus, sorted five days after infection
# Excerpt: PBMCs were infected with VSV-G pseudotyped LTR-Tat-IRES-GFP virus particles and examined establishment of a latent phenotype, as in the cell line latency models (J-Lat/S-Lat). Briefly, PBMCs were Ficoll-purified from buffycoats of healthy donors, activated with phytohemagglutinin (PHA-L) and Interleukin-2 (IL-2), followed by virus infection. Five days after infection, GFP negative cells were sorted by FACS, placed in culture. […] Thus, even in the context of a fully activated T cell, integration of HIV at select sites will lead to the suppression of HIV transcription.
# [2] = tested on: NFkB target genes TLR2 and ICAM1; experiment: qRT-PCR of NFkB target genes in latent HIV-infected Jurkat/SupT1 cell lines; type: cell-based
# Procedure: as §1
# (§2) Latent HIV-infected S-Lat 30 (A) and J-LatP32 (B) were treated with Wnt3A or control conditioned media. Relative mRNA expression levels of endogenous Wnt target genes AXIN2, ZCCHC12, TCF1, MMP9, the HIV P24 Gag and the LTR-reporter GFP, control (GAPDH) and NFkB target genes were quantitated by qRT-PCR. Expression data are presented as fold induction normalized to Cyclophillin A control.
# (§3) A) S-Lat 46, J-Lat P32, J-Lat A2, J-Lat 11.1, S-Lat 24, S-Lat 9 and S-Lat 30 latently infected Jurkat and SupT1 cell lines were treated with Lithium Chloride (10 mM) for 2 hours, and GFP expression was monitored by FACS analysis to determine activation of the latent LTR. B) J-Lat P32 and (C) S-Lat 30 Jurkats and SupT1 cell lines harbouring latently infected HIV were either untreated or treated with 2, 5 or 10 mM LiCl as indicated. Expression of HIV-LTR driven P24 and GFP, and endogenous Wnt target genes AXIN2, MMP9, TCF1, as well as control GAPDH and NFkB target genes TLR2 and ICAM1 was monitored by qRT-PCR 72 hours after treatment. Expression data are presented as fold induction normalized to Cyclophillin A control.
# as §2, with “In addition, latent” for “Latent”
# [3] = tested on: Wnt target genes AXIN2, TCF7(TCF1), MMP9, ZCCHC12, MMP2; experiment: qRT-PCR of endogenous Wnt target genes in latent HIV-infected Jurkat/SupT1 cell lines; type: cell-based; conditions: Wnt3A conditioned media; S-Lat 30 and J-LatP32; FIG. 7
# Procedure: as §1, §2
# as §3, with “B) J-Lat P32 and (C) S-Lat 30 Jurkats and SupT1 cell lines harbouring latently infected HIV were either untreated or treated with 2, 5 or 10 mM LiCl as indicated.” left out, “Expression data are presented as fold induction normalized to Cyclophillin A control.” left out
# as §2, with “In addition, latent” for “Latent”, “Expression data are presented as fold induction normalized to Cyclophillin A control.” left out
# [4] = tested on: latent HIV (P24 Gag, LTR-reporter GFP); experiment: qRT-PCR of HIV P24 Gag and LTR-reporter GFP mRNA in latent HIV-infected cell lines; type: cell-based; conditions: Wnt3A conditioned media; S-Lat 30 and J-LatP32; FIG. 7
# Excerpt: A) Exogenous expression of S33Y β-catenin in S-Lat30 latent HIV infected cell line results in activation of TCF/LEF-driven TOPFLASH luciferase activity. […] S33Y β-catenin expression also results in a concomitant activation of latent HIV in S-Lat30 HIV infected cell line as quantitated by increased mRNA expression of HIV P24 Gag and the LTR-reporter GFP. Expression data are presented as fold induction normalized to Cyclophillin A control.
# as §2
# as §2, with “In addition, latent” for “Latent”, “control. […]” for “control.”
molecule,measurement,setting,value
"CCCC(CCC)C(=O)O [VPA, valproic acid]",de-repression / activation of latent HIV LTR,latent HIV LTR,marginal activation
same,remodelling of nuc-1 (MNase mapping),[1]; co-treatment of VPA with Wnt stimulation,dramatic remodelling of the repressive nuc-1
CCCCCCCCCCCCCC(=O)O[C@@H]1[C@@H](C)[C@@]2(O)[C@@H](C=C(CO)C[C@]3(O)C(=O)C(C)=C[C@@H]23)[C@@H]2C(C)(C)[C@]12OC(C)=O [PMA],loosely positioned nucleosomes over DHS1 (MNase mapping),[1]; PMA stimulation,disappear
same,HIV expression in GFP negative sorted infected PBMCs,latently infected PBMCs,activated HIV expression
CC(=O)O[C@@]12C[C@@H](C)[C@@]3(O)[C@@H](C=C(CO)C[C@]4(O)C(=O)C(C)=C[C@@H]34)[C@@H]1C2(C)C [Prostratin],"mRNA expression of NFkB target genes TLR2, ICAM1 (RT-PCR)","[2]; Lithium 1 mM-10 mM, Prostratin as positive control, FIG. 9",activation of the NFkB target genes TLR2 and ICAM
"Cc1c[nH]c(-c2cnc(NCCNc3ccc(C#N)cn3)nc2-c2ccc(Cl)cc2Cl)n1 [CHIR-99021, 6-(2-(4-(2,4-Dichlorophenyl)-5-(4-methyl-1H-imidazol-2-yl)-pyrimidin-2-ylamino)ethyl-amino)-nicotinonitrile]",activation of the latent LTR (GFP expression by FACS),"latent HIV LTR; 1 μM, 24 hours, J-Lat P44, S-Lat 24, J-Lat P21, J-Lat 11.1, S-Lat 9, S-Lat 30, FIG. 8",activation of the HIV LTR
Wnt3A,de-repression / activation of latent HIV LTR,latent HIV LTR,de-repression of latent HIV LTR
same,activation of endogenous Wnt target genes (qRT-PCR),[3],activates latent HIV and endogenous Wnt target genes
same,activation of NFkB target genes (qRT-PCR),"[2]; Wnt3A conditioned media, S-Lat 30 and J-LatP32, FIG. 7",not NFkB target genes
same,"activation of latent HIV (P24 Gag and LTR-reporter GFP mRNA, qRT-PCR)",[4],activates latent HIV
TNFa,HIV expression in GFP negative sorted infected PBMCs,latently infected PBMCs,activated HIV expression
"R-spondin: LGR ligand, 27 kDa protein, used as R-spondin1-conditioned medium from HEK293T (protein, UniProt Q2MKA7 21-263, looked up, conditioned medium, LGR ligand, 27 kDa protein, used as R-spondin1-conditioned medium from HEK293T) R-spondin-1: SRGIKGKRQRRISAEGSQACAKGCELCSEVNGCLKCSPKLFILLERNDIRQVGVCLPSCPPGYFDARNPDMNKCIKCKIEHCEACFSHNFCTKCKEGLYLHKGRCYPACPEGSSAANGTMECSSPAQCEMSEWSPWGPCSKKQQLCGFRRGSEERTRRVLHAPVGDHAACSDTKETRRCTVRRVPCPEGQKRRKGGQGRRENANRNLARKESKEAGAGSRRRKGQQQQQQQGTVGPLTSAGPA",de-repression / activation of latent HIV LTR,latent HIV LTR,de-repression of latent HIV LTR
